pIC50: −log10 of the molar value.
Test system: A549 cells
Test: Cytotoxicity on human tumor line A549 (neutral red)
Format: cell-based
Details: 96 hours incubation
Description: The Cytotoxic Biological Activity on Human Tumor Lines is Determined According to the Following Experimental Protocol:
The human cell lines KB and A549 are obtained from the ATCC (American Type Culture Collection, Rockville, USA). The A549 cells are cultured as a layer in a culture flask in RPMI 1640 medium, L-glutamine to 2 mM, 200 U/ml penicillin, 200 μg/ml streptomycin and supplemented with 10% heat-inactivated fetal calf serum. The KB cells are cultured as a layer in a culture flask in Dulbelco's medium containing L-glutamine to 2 mM, 200 U/ml penicillin, 200 μg/ml streptomycin and supplemented with 10% heat-inactivated fetal calf serum.
The cells in exponential growth phase are trypsinized, washed in PBS 1×, and inoculated in 96-well microplates (Costar) at a concentration of 4×10^4 cells/ml for A549 and 1.5×10^4 cells/ml (0.2 ml/well) for KB cells. The cells are then incubated for 96 hours in the presence of variable concentrations of test compounds (10, 1, 0.1 and 0.01 μg/ml, each point being determined in quadruplicate). Sixteen hours before the end of the incubation, neutral red is added to a final concentration of 0.02% in each well. […] The cellular incorporation of the dye, which reflects the cell growth, is evaluated by spectrophotometry at a wavelength of 540 nm for each sample using a Dynatech MR5000 reading machine. […]

CSc1nc(Nc2ccc3nc(C)cc(N)c3c2)nc(OC2CCN(C)CC2)n1 [Example 3, N6-[6-(1-methylpiperid-4-yloxy)-4-methylsulfanyl-[1,3,5]triazin-2-yl]-2-methylquinoline-4,6-diamine]
pIC50: 5.22

— patent US20030013711A1, “Chemical derivatives and their application as antitelomerase agents” (priority 2001, published 2003)
